Source: patent publication US20120252896A1, “METHODS AND COMPOSITIONS FOR MODULATION OF T-CELLS VIA THE KYNURENINE PATHWAY” (priority 2009, published 2012)
Like-named read-outs stand apart in the source and are kept apart here.

Columns and labels:
[1] = system: differentiating Th17 cells; assay: Inhibition of IL-17 production by CD4+ T cells under Th17 differentiating conditions (ELISA); assay type: cell-based, C57BL/6 mice; details: for IC50 Th17 (IL-17 production): differentiating Th17 cells in vitro, 6 days of culture, average ±S.E.; for inhibitory effect on IL-17 production: within the range of concentrations assayed
[2] = system: differentiating Th1 cells; assay: Inhibition of IFNγ production during Th1 differentiation (ELISA); assay type: cell-based, C57BL/6 mice; details: differentiating Th1 cells in vitro, 6 days of culture, average ±S.E.
Procedure: For comparison studies with Th1 cells, T cells were differentiated in the same in vitro conditions, with only anti-murine IL-4 neutralizing antibody, recombinant murine IL-2 (10 ng/ml, eBioscience) and recombinant murine IL-12p70 (20 ng/ml, BD Biosciences) and CD3/CD28 stimulation. The concentration of IFN in culture supernatants was measured by ELISA (BD Biosciences). L-kynurenine, 3′-hydroxy-DL-kynurenine, 3′-hydroxyanthranilic acid, anthranilic acid and quinolinic acid (Sigma) were dissolved in RPMI medium under agitation at 1 mM concentration and sterile filtered. Tryptophan metabolites were added individually or in combination, in twofold dilutions, to the differentiating medium of Th1 or Th17 cells for the 6 days of culture.

[3] = system: Th17 cells (CD4+ T cells under Th17 differentiating conditions; IL-17 production); assay: IL-17 production by differentiating Th17 cells in vitro (ELISA); assay type: cell-based, mouse (C57BL/6); details: Mus musculus
[4] = system: Th1 cells (IFNγ production); assay: IFNγ production by differentiating Th1 cells in vitro (ELISA); assay type: cell-based, mouse (C57BL/6); details: Mus musculus
[5] = 144 h, Table II, differentiating Th17 cells, 6 days, average ± S.E., read-out: IC50, IL-17 production, Th17
[6] = Th17 differentiating conditions, read-out: IC50, IL-17 production
[7] = 144 h, Table II, differentiating Th1 cells, 6 days, average ± S.E., read-out: IC50, IFNγ production, Th1

In the case of `O=C(O)c1cccnc1C(=O)O` [Quinolinic acid, quinolinic acid], the “IC50 Th17 (IL-17 production)” value [1] is reported as “No inhibition”, the “inhibitory effect on IL-17 production” value [1] is reported as “no inhibitory effect” and the IC50 ([2]; Mus musculus, 144 h) is reported as 112 ± 1.4 µM.

Work on `Nc1c(O)cccc1C(=O)CC(N)C(=O)O` (racemic) [3′-Hydroxy-DL-kynurenine, 3′-hydroxy-DL-kynurenine] yielded an IC50 [3, 5] of 68.1 ± 1.4 µM, an IC50 [3, 6] of 68.1 ± 1.4 µM and an IC50 [4, 7] of 153.8 ± 1.1 µM.

`Nc1c(O)cccc1C(=O)O` [3′-Hydroxyanthranilic acid, 3′-hydroxyanthranilic acid] showed an IC50 [3, 5] of 27.7 ± 3.7 µM, an IC50 [3, 6] of 27.7 ± 3.7 µM and an IC50 [4, 7] of 57.6 ± 1 µM. The IC50 ([4]; read-out: IC50, IFNγ production during Th1 differentiation) was 57.6 ± 1 µM.

Compound `Nc1ccccc1C(=O)C[C@H](N)C(=O)O` [L-Kynurenine, L-kynurenine] has an IC50 [3, 5] of 100.8 ± 1 µM, an IC50 [3, 6] of 100.8 ± 1 µM and an IC50 [4, 7] of 154.4 ± 1.2 µM.

`Nc1ccccc1C(=O)O` [Anthranilic acid, anthranilic acid] was tested, and the “IC50 Th17 (IL-17 production)” value [1] was “No inhibition”, the “inhibitory effect on IL-17 production” value [1] was “no inhibitory effect” and the “IC50 Th1 (IFNγ production)” value [2] was “No inhibition”.
